# Assay results as given in US7211566B2 (Universite De Sherbrooke, priority 2003, dated 2007).
# Square brackets hold non-standard residues; d marks the D form. Peptide text beside a SMILES is read from it. Oic = O=C(O)[C@@H]1C[C@@H]2CCCC[C@@H]2N1; d2Nal = N[C@H](Cc1ccc2ccccc2c1)C(=O)O; αMeF = C[C@](N)(Cc1ccccc1)C(=O)O; Orn = NCCC[C@H](N)C(=O)O
# Experiments:
# Assay type in all cases: in vivo
# [1] = Circulatory half-life in rat plasma after bolus i.v. administration; conditions: iv, 2.5 mg/kg body weight, direct i.v. jugular administration, anaesthetized rats
# Protocol: Rats were anesthetized with the administration of ketamine/xylazine (100 mg/ml:0.1 ml/100 g, i.p.). For ex vivo analysis, blood was collected by cardiac puncture and placed into 5 ml vacutainer tubes containing 0.5 ml of 0.1 M Na2CO3 (for blood and plasma). For in vivo analysis, the drug was administered by i.v. bolus (2.5 mg/kg body weight) in the jugular vein of anesthetized rats and blood was collected as described above after 2, 5, 15, 30, 60, 120, 180 and 240 min.
# Quantitative analysis of the extracted compound and standard controls was carried out using an Agilent reverse-phase HPLC (model 1100) coupled to a 4.6×150 mm Zorbax 300SB-C18 column (5 μm particle size) and equipped with a diode array detector. The peptides were eluted at a flow rate of 0.7 ml/min. with a linear gradient ranging from 5 to 65% of acetonitrile/TFA 0.05%/water over 32 min. at 25° C. The elution positions and quantification of compounds were determined by following the absorbance at 226 nm.
# Concentrations of the peak's products were estimated using a computer software program (Chemstation for LC 3D, Agilent) that controlled all the chromatography operations.
# STZ diabetic mice [2] = experiment: Tail flick test, type-1 diabetic hyperalgesia; conditions: STZ diabetic mice, i.p., at time of maximal inhibition (10 min)
# Protocol: (§1) Male CD-1 mice weighting between 25–30 g (Charles River Breeding Laboratory, St-Constant, QC, Canada) were used. The mice were housed four by cage with free access to food and water. They were maintained under conditions of standard lighting, (alternating 12-h light/dark cycle), temperature (22±0.5° C.) and humidity (60±10%) with food and water available at libitum. Animals were used only once in a given experiment. Experiments were conducted between 10:00 and 18:00 h.
# (§2) Streptozotocin (Pharmacia & Upjohn Incorporation, Mississauga, ON, Canada) was dissolved in saline at a pH of 4.5 and administered to mice i.p. The BKB1 agonist desArg^9BK and compound c were dissolved in saline and administered to mice i.p.
# (§3) Insulin-dependent diabetes mellitus (IDDM) was induced in mice using STZ. Male CD-1 mice were given a single high i.p. dose of STZ (200 mg/kg) (McEvoy et al., 1984, J Clin Invest 74, 715–722). […] Blood glucose levels were determined with an automatic analyzer (Glucometer Elite XL, Bayer Incorporation, Toronto, Ontario, Canada) using glucose oxidase/potassium ferricyanide reagent strips. […]
# The tail flick test of D'Amour and Smith (D'Amour and Smith, 1941, J Pharmacol Exp Ther 72, 74–79) modified for mice was used. […] The radiant light is focussed on a blackened spot in the mid region of the animal's tail (2–3 cm from the tip of the tail) and the latency between the application of the stimulation light and the flicking of the animal's tail is recorded. When the animal flicks its tail, its exposes a photocell in the apparatus immediately below the tail and the instrument is automatically stopped and the time is recorded. […]
# (§4) The effect of the selected drugs on nociception was determined by converting the hot plate, the plantar stimulation, the tail immersion or the tail flick responses from latencies into MPE (Maximum Percent Effect) according to the following equation (Bhargava and Zhao, 1996, Neuropeptides, 30, 219–223): […]
# STZ diabetic mice [3] = experiment: Hot plate test, type-1 diabetic hyperalgesia; conditions: STZ diabetic mice, i.p., at time of maximal inhibition (20 min)
# Protocol: as §1, §2, §3
# The hot plate test was adapted from the technique of Eddy and Leimbach (1953, J Pharmacol Exp Ther 107, 385–389). […] When the pain threshold is reached the animal starts to react by licking its hind paw or to jump, and the reaction time is recorded with a built-in timer, with a maximum cut-off time of 30 s to avoid tissue damage. […]
# as §4
# In all tests, pre-treatment latencies were determined three times with an interval of 24 h starting three days before the injection of STZ or saline and the mean was calculated in order to obtain stable pre-drug response latency. […]
smiles,measurement,setting,value
"CC[C@H](C)[C@H](NC(=O)[C@@H](Cc1ccc2ccccc2c1)NC(=O)[C@H](CO)NC(=O)[C@](C)(Cc1ccccc1)NC(=O)CNC(=O)[C@@H]1CCCN1C(=O)[C@@H]1C[C@@H]2CCCC[C@@H]2N1C(=O)[C@H](CCCNC(=N)N)NC(=O)[C@H](CCCN)NC(C)=O)C(=O)O [compound c, Ac-Orn[Oic^2,(α-Me)Phe^5,D-βNal^7,Ile^8]desArg^9BK] (Ac-[Orn]R[Oic]PG[αMeF]S[d2Nal]I-OH)",half-life,[1],> 2 h
same,ID50,STZ diabetic mice [2],0.072 ± 0.002 mg/kg
same,ID50,STZ diabetic mice [3],0.078 ± 0.003 mg/kg
